biological target: urease enzyme (Canavalia ensiformis, UniProt P07374); assay: biochemical; assay type: biochemical; conditions: not given
Experimental: First, 5 μL of the test compounds were added to the reaction mixtures, which also contained 25 μL of enzyme solution and 55 μL of buffer containing 100 mM urea, then the mixtures were incubated in 96-well plates at 30 °C for 15 min (0.5 mM concentration). For the kinetics analysis, urea concentrations were changed from 2 to 24 mM. Urease activity was determined by measuring ammonia generation using Weatherburn’s indophenol method. In a nutshell, each well received 45 μL of the 0.005% w/v sodium nitroprusside, phenol reagent 1% w/v phenol, and 70 μL of the alkali reagent—0.1% active chloride NaOCl and 0.5% w/v NaOH. Using a microplate reader, rising absorbance at 630 nm was observed after 50 min (Molecular Devices, San Jose, CA, USA). In a final volume of 200 μL, each reaction was carried out three times. Using the software SoftMaxPro, the results (change in absorbance per minute) were processed (Molecular Devices, San Jose, CA, USA). The experiments were run at pH 6.8 throughout. The formula 100-(ODtest well/ODcontrol) 100 was used to calculate the percentage of inhibition.

Chain of urease enzyme (P07374 whole entry, looked up): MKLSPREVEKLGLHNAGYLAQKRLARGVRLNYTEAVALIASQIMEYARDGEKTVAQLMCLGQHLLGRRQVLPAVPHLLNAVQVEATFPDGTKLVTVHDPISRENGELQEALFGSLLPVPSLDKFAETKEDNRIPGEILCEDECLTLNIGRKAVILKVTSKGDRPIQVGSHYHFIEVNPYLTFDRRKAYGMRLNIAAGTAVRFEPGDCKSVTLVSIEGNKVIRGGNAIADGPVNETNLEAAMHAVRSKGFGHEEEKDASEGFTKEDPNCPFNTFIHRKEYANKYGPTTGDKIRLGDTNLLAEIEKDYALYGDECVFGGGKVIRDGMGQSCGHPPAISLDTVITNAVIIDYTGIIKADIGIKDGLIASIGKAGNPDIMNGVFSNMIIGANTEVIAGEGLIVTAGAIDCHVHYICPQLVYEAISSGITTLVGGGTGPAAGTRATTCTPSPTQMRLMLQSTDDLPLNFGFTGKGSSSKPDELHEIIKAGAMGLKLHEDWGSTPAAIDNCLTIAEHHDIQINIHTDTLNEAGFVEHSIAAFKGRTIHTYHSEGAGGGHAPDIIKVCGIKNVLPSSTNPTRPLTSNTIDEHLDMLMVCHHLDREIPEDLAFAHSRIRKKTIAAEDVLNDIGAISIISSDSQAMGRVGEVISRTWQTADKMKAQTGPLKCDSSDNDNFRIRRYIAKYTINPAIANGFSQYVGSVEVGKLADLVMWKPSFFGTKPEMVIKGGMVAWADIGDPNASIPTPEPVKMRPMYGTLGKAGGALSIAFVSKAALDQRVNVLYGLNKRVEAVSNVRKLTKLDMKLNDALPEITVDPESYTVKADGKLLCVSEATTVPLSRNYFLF

Q: For O=C(c1cccc(O)c1O)n1c2ccc([N+](=O)[O-])cc2c2nnc(SCc3nc4ccccc4o3)nc21 [analog 22], which IC50 is on record?
A: The IC50 was 1.7 ± 0.1 µM.

Q: O=C(c1cc(O)ccc1O)n1c(CSc2nnc3c4cc([N+](=O)[O-])ccc4n(C(=O)c4cc(O)ccc4O)c3n2)nc2ccccc21 [analog 6] was tested. Which IC50 did it give?
A: Its IC50 is 6.7 ± 0.2 µM.

Q: With O=C(c1ccc([N+](=O)[O-])cc1)n1c(CSc2nnc3c4cc([N+](=O)[O-])ccc4n(C(=O)c4ccc([N+](=O)[O-])cc4)c3n2)nc2ccccc21 [analog 1] as the molecule, how does the IC50 read?
A: Its IC50 is 17.6 ± 0.3 µM.

Q: O=C(c1ccc(Cl)cc1)n1c2ccc([N+](=O)[O-])cc2c2nnc(SCc3nc4ccccc4o3)nc21 [analog 13] was tested. Which IC50 did it give?
A: Its IC50 is 9.7 ± 0.2 µM.

Q: Cc1ccccc1C(=O)n1c2ccc([N+](=O)[O-])cc2c2nnc(SCc3nc4ccccc4o3)nc21 [analog 15] was tested. Which IC50 did it give?
A: The IC50 was 36.2 ± 0.7 µM.

Q: With O=C(c1cccc([N+](=O)[O-])c1)n1c(CSc2nnc3c4cc([N+](=O)[O-])ccc4n(C(=O)c4cccc([N+](=O)[O-])c4)c3n2)nc2ccccc21 [analog 11] as the molecule, how does the IC50 read?
A: The IC50 was 26.6 ± 0.5 µM.

Q: For COc1ccc(C(=O)n2c3ccc([N+](=O)[O-])cc3c3nnc(SCc4nc5ccccc5o4)nc32)c(OC)c1 [analog 21], which IC50 is on record?
A: The IC50 was 31.8 ± 0.5 µM.

Q: With O=C(c1cccc(F)c1)n1c2ccc([N+](=O)[O-])cc2c2nnc(SCc3nc4ccccc4o3)nc21 [analog 24] as the molecule, how does the IC50 read?
A: Its IC50 is 1.6 ± 0.01 µM.

Q: Which IC50 does the source give for O=C(c1ccc(O)cc1)n1c(CSc2nnc3c4cc([N+](=O)[O-])ccc4n(C(=O)c4ccc(O)cc4)c3n2)nc2ccccc21 [analog 12] here?
A: Its IC50 is 14.6 ± 0.3 µM.

Q: Which IC50 does the source give for O=C(c1cc(O)cc(O)c1)n1c(CSc2nnc3c4cc([N+](=O)[O-])ccc4n(C(=O)c4cc(O)cc(O)c4)c3n2)nc2ccccc21 [analog 3] here?
A: Its IC50 is 2.1 ± 0.1 µM.

Q: With COC(=O)c1ccc(C(=O)n2c3ccc([N+](=O)[O-])cc3c3nnc(SCc4nc5ccccc5o4)nc32)cc1 [analog 14] as the molecule, how does the IC50 read?
A: The IC50 was 23.9 ± 0.5 µM.

Q: With COc1ccc(C(=O)n2c3ccc([N+](=O)[O-])cc3c3nnc(SCc4nc5ccccc5o4)nc32)cc1O [analog 20] as the molecule, how does the IC50 read?
A: Its IC50 is 2.7 ± 0.1 µM.

Q: For O=C(c1c(O)cc(O)cc1O)n1c(CSc2nnc3c4cc([N+](=O)[O-])ccc4n(C(=O)c4c(O)cc(O)cc4O)c3n2)nc2ccccc21 [analog 8], which IC50 is on record?
A: The IC50 was 0.2 ± 0.01 µM.

Q: O=C(c1ccc(O)cc1O)n1c(CSc2nnc3c4cc([N+](=O)[O-])ccc4n(C(=O)c4ccc(O)cc4O)c3n2)nc2ccccc21 [analog 2] was tested. Which IC50 did it give?
A: The IC50 was 1.9 ± 0.1 µM.

Q: COc1ccccc1C(=O)n1c(CSc2nnc3c4cc([N+](=O)[O-])ccc4n(C(=O)c4ccccc4OC)c3n2)nc2ccccc21 [analog 4] was tested. Which IC50 did it give?
A: Its IC50 is 32.2 ± 0.3 µM.

Q: With Cc1ccc(C(=O)n2c3ccc([N+](=O)[O-])cc3c3nnc(SCc4nc5ccccc5o4)nc32)cc1 [analog 16] as the molecule, how does the IC50 read?
A: The IC50 was 28.2 ± 0.5 µM.

Q: With CN(C)c1ccc(C(=O)n2c(CSc3nnc4c5cc([N+](=O)[O-])ccc5n(C(=O)c5ccc(N(C)C)cc5)c4n3)nc3ccccc32)cc1 [analog 9] as the molecule, how does the IC50 read?
A: The IC50 was 31.1 ± 0.3 µM.

Q: O=C(c1ccccc1O)n1c2ccc([N+](=O)[O-])cc2c2nnc(SCc3nc4ccccc4o3)nc21 [analog 18] was tested. Which IC50 did it give?
A: The IC50 was 3.8 ± 0.1 µM.

Q: O=C(c1ccccc1F)n1c2ccc([N+](=O)[O-])cc2c2nnc(SCc3nc4ccccc4o3)nc21 [analog 23] was tested. Which IC50 did it give?
A: Its IC50 is 1.1 ± 0.01 µM.

Q: With O=C(c1cccc(Cl)c1)n1c2ccc([N+](=O)[O-])cc2c2nnc(SCc3nc4ccccc4o3)nc21 [analog 17] as the molecule, how does the IC50 read?
A: Its IC50 is 22.2 ± 0.5 µM.

Q: How did the IC50 turn out when O=C(c1cccc([N+](=O)[O-])c1)n1c2ccc([N+](=O)[O-])cc2c2nnc(SCc3nc4ccccc4o3)nc21 [analog 25] was run?
A: Its IC50 is 21.2 ± 0.4 µM.

Q: O=C(c1ccc(O)c(O)c1)n1c(CSc2nnc3c4cc([N+](=O)[O-])ccc4n(C(=O)c4ccc(O)c(O)c4)c3n2)nc2ccccc21 [analog 5] was tested. Which IC50 did it give?
A: Its IC50 is 0.9 ± 0.01 µM.

Q: Which IC50 does the source give for Cc1cccc(C(=O)n2c3ccc([N+](=O)[O-])cc3c3nnc(SCc4nc5ccccc5o4)nc32)c1 [analog 19] here?
A: The IC50 was 34.9 ± 0.7 µM.

Q: Which IC50 does the source give for O=C(c1ccccc1[N+](=O)[O-])n1c(CSc2nnc3c4cc([N+](=O)[O-])ccc4n(C(=O)c4ccccc4[N+](=O)[O-])c3n2)nc2ccccc21 [analog 10] here?
A: The IC50 was 19.3 ± 0.4 µM.

Q: O=C(c1cccc(O)c1)n1c(CSc2nnc3c4cc([N+](=O)[O-])ccc4n(C(=O)c4cccc(O)c4)c3n2)nc2ccccc21 [analog 7] was tested. Which IC50 did it give?
A: The IC50 was 18.9 ± 0.4 µM.

same assay, conditions: in vitro; pH 6.8; 30 °C; 100 mM urea; thiourea as standard; read-out: IC50 ± SEM against the urease enzyme

Q: NC(N)=S [Standard Thiourea, thiourea, reference compound] was tested. Which IC50 did it give?
A: The IC50 was 21.9 ± 0.4 µM.

same assay, conditions: urease inhibition, compared to thiourea

Q: O=C(c1cccc(O)c1O)n1c2ccc([N+](=O)[O-])cc2c2nnc(SCc3nc4ccccc4o3)nc21 [analog 22] was tested. Which “potency relative to standard thiourea drug (fold)” value did it give?
A: The value was “ten-fold-enhanced inhibitory potential”.

Q: With O=C(c1ccccc1F)n1c2ccc([N+](=O)[O-])cc2c2nnc(SCc3nc4ccccc4o3)nc21 [analog 23] as the molecule, how does the “potency relative to standard thiourea drug (fold)” value read?
A: The value was “ten-fold-enhanced inhibitory potential”.

Reference: article PMC9571547, “New Triazinoindole Bearing Benzimidazole/Benzoxazole Hybrids Analogs as Potent Inhibitors of Urease: Synthesis, In Vitro Analysis and Molecular Docking Studies” (Molecules, 2022)
